In patent publication US11427590B2, “Small molecule inhibitors of neutral sphingomyelinase 2 (nSMase2) for the treatment of neurodegenerative diseases” (The Johns Hopkins University, priority 2017, dated 2022):
Like-named read-outs stand apart in the source and are kept apart here.

Assays:
human nSMase2 = human nSMase2 (Homo sapiens (Human), UniProt Q9NY59); experiment: Human nSMase2 fluorescence-based activity assay; type: biochemical
Excerpt: Figuera-Losada, et al. Lysate of cells expressing recombinant nSMase2 is used to catalyze the hydrolysis of sphingomyelin (SM) to ceramide and phosphorylcholine.

rat astrocytes = experiment: Inhibition of exosome release from primary astrocytes in vitro; type: cell-based; conditions: 0.3-10 μM, 2 h after treatment, vs DMSO (0.02%)
Procedure: The effect of nSMase2 inhibitors on the manufacturing and release of ceramide rich exosomes from primary astrocytes was investigated as previously described. Dickens, et al. Briefly, rat astrocytes are seeded onto 6-well plates at a density of 20,000 cells/well. Twenty-four hours after seeding, astrocytes are washed with PBS and the medium changed to media without FBS. Absence of FBS mimics a trophic factor withdrawal stimulus causing the release of exosomes via a nSMase2-dependent pathway. Astrocytes are then treated with nSMase2 inhibitors at concentrations in the range 0.03-30 μM. DMSO (0.02%) is used as control. Two hours after treatment, media is collected and centrifuged at 2700 g for 15 min (4° C.). Supernatant is further centrifuged at 10,000 g for 15 min (4° C.) to remove large particles such as apoptotic bodies. Astrocyte-derived extracellular vesicles (EVs) are isolated via ultracentrifugation at 100,000 g for 3 h at 4° C. Fractions containing EV are washed twice with 5 ml PBS and the final pellet resuspended in PBS. This isolation procedure results in the isolation of EVs with a narrow size range and protein markers consistent with exosomes. Dickens, et al. The number of EVs is quantified using ZetaView Nanoparticle Tracker (Particle Metrix GmBH, Meerbusch, Germany) and the corresponding ZetaVeiw software (8.03.04.01). Nanosphere size standard 100 nm (Thermo Scientific) is used to calibrate the instrument prior to sample readings. For each sample 1 mL of the supernatant is injected into the sample-carrier cell and the particle count measured at 5 positions, with 2 cycles of reading per position. Cells are washed with PBS after every sample. Mean concentration of EVs/mL (±SEM) is calculated from 6 replicates. This screening assay is reliable with a Z′=0.75.
Referring now to FIG. 4A and FIG. 4B, the ability of compound 38 and several of its analogs to inhibit exosome release in vitro was evaluated as previously described. […] Two hours after treatment, exosomes were isolated from the media and quantified using ZetaView Nanoparticle Tracker. The mean concentration of exosomes (EVs/mL±SEM) was calculated from 6 replicate experiments (see FIG. 4). […] Baseline exosome release can be variable between experiments; as a result, inhibition is always compared relative to vehicle treatment within the same experiment. Structures of compounds with their corresponding IC50s are provided in the second row of FIG. 4.

[1] = Phase I metabolic stability in human liver microsomes; type: in vitro ADME; conditions: 37° C.
Procedure: (§1) Phase I metabolic stability in both mouse and human liver microsomes was performed as described previously. Rais et al. Briefly, compounds are spiked in liver microsomes (mouse, human) and incubated in an orbital shaker at 37° C. […] Compound disappearance is monitored over time using LC/MS/MS.

[2] = Phase I metabolic stability in mouse liver microsomes; type: in vitro ADME; conditions: 37° C.
Procedure: as §1

[3] = inhibition of nSMase2, read-out: IC50
[4] = inhibition of nSMase2, IC50 category A-D, read-out: Activity*

human nSMase2, sequence (Q9NY59 whole entry): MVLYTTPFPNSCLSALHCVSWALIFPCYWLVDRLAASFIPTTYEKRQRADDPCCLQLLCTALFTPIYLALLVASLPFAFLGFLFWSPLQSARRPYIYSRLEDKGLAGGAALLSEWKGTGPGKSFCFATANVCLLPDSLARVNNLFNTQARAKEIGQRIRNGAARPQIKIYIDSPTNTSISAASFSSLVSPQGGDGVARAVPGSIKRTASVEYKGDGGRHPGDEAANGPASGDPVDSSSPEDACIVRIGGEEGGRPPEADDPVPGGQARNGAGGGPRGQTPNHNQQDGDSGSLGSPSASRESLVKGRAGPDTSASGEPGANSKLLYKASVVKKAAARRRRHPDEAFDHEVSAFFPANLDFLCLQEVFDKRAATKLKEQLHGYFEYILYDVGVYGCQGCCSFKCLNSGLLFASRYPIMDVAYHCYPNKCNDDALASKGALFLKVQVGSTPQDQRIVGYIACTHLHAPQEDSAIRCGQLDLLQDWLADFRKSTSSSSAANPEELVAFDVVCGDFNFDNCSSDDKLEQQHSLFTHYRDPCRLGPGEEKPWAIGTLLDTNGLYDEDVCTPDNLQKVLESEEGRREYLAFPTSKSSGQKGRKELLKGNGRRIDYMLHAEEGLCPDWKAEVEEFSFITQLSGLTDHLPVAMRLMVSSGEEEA

IC50 (human nSMase2; [3]) | IC50 (human nSMase2; [4]) | Structure (SMILES) | also measured
> 1 µM |  | CC(=O)N[C@@H]1CCN(c2cc(C)nn3c(C)c(C)nc23)C1 [48-PROV] | 
> 1 µM |  | COc1cc(N2CC[C@@H](NC(C)=O)C2)c2nc(C)c(-c3ccc(OC)c(OC)c3)n2n1 [38-PROV] | 
> 100 µM |  | CC(=O)N[C@@H]1CCN(c2cc(Cl)nn3c(-c4ccc(F)cc4)c(C)nc23)C1 [18-PROV] | 
≤ 1 µM |  | CC(=O)N[C@@H]1CCN(c2cc(C)nn3c(-c4ccc(O)cc4)c(C)nc23)C1 [47-PROV] | 
> 100 µM |  | COc1cccc(-c2c(C)nc3c(N4CC[C@@H](NC(C)=O)C4)cc(Cl)nn23)c1 [14-PROV] | 
 | > 100 µM | COc1ccc(-c2c(C)nn3c(N4CC[C@@H](NC(C)=O)C4)cc(C)nc23)cc1OC [4-PROV] | 
≤ 1 µM |  | CC(=O)N[C@@H]1CCN(c2cc(C)nn3c(-c4ccc5c(c4)OCO5)c(C)nc23)C1 [40-PROV] | 
> 1 µM |  | CC(=O)N[C@@H]1CCN(c2cc(C)nn3c(-c4cccc(S(C)(=O)=O)c4)c(C)nc23)C1 [42-PROV] | 
> 100 µM |  | CC(=O)Nc1cccc(-c2c(C)nc3c(N4CC[C@@H](NC(C)=O)C4)cc(Cl)nn23)c1 [19-PROV] | 
 | > 100 µM | COc1ccc(-c2c(C)nn3c(N4CC[C@@H](NC(C)=O)C4)nc(C)nc23)cc1OC [36-PROV] | 
> 1 µM |  | COc1cccc(-c2c(C)nc3c(N4CC[C@@H](NC(C)=O)C4)cc(C)nn23)c1 [20-PROV] | 
> 100 µM |  | COc1ccc(-c2c(C)nc3c(N4CC[C@@H](NC(C)=O)C4)cc(Cl)nn23)cc1 [11-PROV] | 
> 100 µM |  | CC(=O)N[C@@H]1CCN(c2cc(Cl)nn3cc(C)nc23)C1 [9-PROV] | 
> 1 µM |  | CC(=O)Nc1cccc(-c2c(C)nc3c(N4CC[C@@H](NC(C)=O)C4)cc(C)nn23)c1 [22-PROV] | 
 | > 100 µM | COc1ccc(-c2c(C)oc3c(N4CC[C@@H](NC(C)=O)C4)cc(C)nc23)cc1OC [8-PROV] | 
> 10 µM |  | CC(=O)N[C@@H]1CCN(c2cc(C)nn3c(I)c(C)nc23)C1 [23-PROV] | 

Continued, molecule first:

Structure (SMILES) | IC50 (human nSMase2; [3]) | IC50 (human nSMase2; [4]) | also measured
COc1ccc(-n2cnc3c(N4CC[C@@H](NC(C)=O)C4)nc(C)nc32)cc1OC [2-PROV] |  | > 100 µM | 
COc1ccc(-n2ncc3c(N4CC[C@@H](NC(C)=O)C4)nc(C)nc32)cc1OC [10-PROV] |  | > 100 µM | 
COc1ccc(-n2c(C)nc3c(N4CC[C@@H](NC(C)=O)C4)ncnc32)cc1OC [5-PROV] |  | > 100 µM | 
COc1ccc(-c2nn(C)c3c(N4CC[C@@H](NC(C)=O)C4)nc(C)nc23)cc1OC [13-PROV] |  | > 100 µM | 
COc1ccc(-c2csc3c(N4CC[C@@H](NC(C)=O)C4)ncnc23)cc1OC [27-PROV] |  | > 100 µM | 
COc1ccc(-c2scc3c(N4CC[C@@H](NC(C)=O)C4)nc(C)nc23)cc1OC [29b-PROV] |  | > 100 µM | 
COc1ccc(-c2c(C)nc3c(N4CC[C@@H](NS(=O)(=O)c5ccc(C(F)(F)F)cc5)C4)cc(C)nn23)cc1OC [compound 30, (R)—N-(1-(3-(3,4-dimethoxyphenyl)-2,6-dimethylimidazo[1,2-b]pyridazin-8-yl)pyrrolidin-3-yl)-4-(trifluoromethyl)benzenesulfonamide] |  |  | exosome release from astrocytes (rat astrocytes): decreased the number of exosomes released from astrocytes in a dose dependent manner; Human Liver Microsome (+) NADPH Remaining at 60 min [1]: 61 ± 3%; Mouse Liver Microsome (+) NADPH % Remaining at 60 min [2]: 15 ± 5%
COc1ccc(-n2c(C)nc3c(N4CC[C@@H](NC(C)=O)C4)nc(C)nc32)cc1OC [3-PROV] |  | > 100 µM | 
COc1ccc(-c2c(C)nc3c(N4CC[C@@H](NS(=O)(=O)c5ccc(Cl)cc5)C4)cc(C)nn23)cc1OC [compound 29, (R)-4-chloro-N-(1-(3-(3,4-dimethoxyphenyl)-2,6-dimethylimidazo[1,2-b]pyridazin-8-yl)pyrrolidin-3-yl)benzenesulfonamide] |  |  | Human Liver Microsome (+) NADPH Remaining at 60 min [1]: 32 ± 6%; Mouse Liver Microsome (+) NADPH % Remaining at 60 min [2]: 7 ± 2%
COc1ccc(-c2c(C)nc3c(N4CC[C@@H](NS(=O)(=O)c5ccc(C(C)=O)cc5)C4)cc(C)nn23)cc1OC [compound 23, (R)-4-acetyl-N-(1-(3-(3,4-dimethoxyphenyl)-2,6-dimethylimidazo[1,2-b]pyridazin-8-yl)pyrrolidin-3-yl)benzenesulfonamide] |  |  | Human Liver Microsome (+) NADPH Remaining at 60 min [1]: 12 ± 3%; Mouse Liver Microsome (+) NADPH % Remaining at 60 min [2]: 5 ± 1%
COc1ccc(-c2c(C)sc3c(N4CC[C@@H](NC(C)=O)C4)ncnc23)cc1OC [28-PROV] |  | > 100 µM | 
COc1ccc(-c2c(C)nc3c(N4CCCC4)cc(C)nn23)cc1OC [compound 44, 3-(3,4-dimethoxyphenyl)-2,6-dimethyl-8-(pyrrolidin-1-yl)imidazo[1,2-b]pyridazine] |  |  | exosome release from astrocytes (rat astrocytes): decreased the number of exosomes released from astrocytes in a dose dependent manner; Human Liver Microsome (+) NADPH Remaining at 60 min [1]: 58 ± 4%; Mouse Liver Microsome (+) NADPH % Remaining at 60 min [2]: 1 ± 0%
COc1ccc(-c2csc3c(N4CC[C@@H](NC(C)=O)C4)nc(Cl)nc23)cc1OC [24-PROV] |  | > 100 µM | 
COc1ccc(-c2c(C)nc3c(N4CC[C@@H](NS(=O)(=O)c5ccc(C)cc5)C4)cc(C)nn23)cc1OC [compound 22, (R)—N-(1-(3-(3,4-dimethoxyphenyl)-2,6-dimethylimidazo[1,2-b]pyridazin-8-yl)pyrrolidin-3-yl)-4-methylbenzenesulfonamide] |  |  | Human Liver Microsome (+) NADPH Remaining at 60 min [1]: 29 ± 1%; Mouse Liver Microsome (+) NADPH % Remaining at 60 min [2]: 2 ± 1%
COc1ccc(-c2c(C)sc3c(N4CC[C@@H](NC(C)=O)C4)nc(Cl)nc23)cc1OC [25-PROV] |  | > 100 µM | 
COc1ccc(-c2c(C)nc3c(N4CC[C@@H](NC(=O)C(F)(F)c5ccccc5)C4)cc(C)nn23)cc1OC [compound 37, (R)—N-(1-(3-(3,4-dimethoxyphenyl)-2,6-dimethylimidazo[1,2-b]pyridazin-8-yl)pyrrolidin-3-yl)-2,2-difluoro-2-phenylacetamide] |  |  | Human Liver Microsome (+) NADPH Remaining at 60 min [1]: 20 ± 2%; Mouse Liver Microsome (+) NADPH % Remaining at 60 min [2]: 6 ± 1%
COc1ccc(-c2c(C)sc3c(N4CC[C@@H](NC(C)=O)C4)nc(C)nc23)cc1OC [29a-PROV] |  | > 100 µM | 
COc1ccc(-c2csc3c(N4CC[C@@H](NC(C)=O)C4)nc(C)nc23)cc1OC [30-PROV] |  | > 100 µM | 
COc1ccc(-c2c(C)nc3c(N4CC[C@@H](NS(=O)(=O)c5ccccc5)C4)cc(C)nn23)cc1OC [compound 28, (R)—N-(1-(3-(3,4-dimethoxyphenyl)-2,6-dimethylimidazo[1,2-b]pyridazin-8-yl)pyrrolidin-3-yl)benzenesulfonamide] |  |  | Human Liver Microsome (+) NADPH Remaining at 60 min [1]: 43 ± 6%; Mouse Liver Microsome (+) NADPH % Remaining at 60 min [2]: 20 ± 1%
COc1ccc(-c2c(C)nc3c(N4CC[C@@H](NC(=O)C(F)(F)F)C4)cc(C)nn23)cc1OC [compound 35, (R)—N-(1-(3-(3,4-dimethoxyphenyl)-2,6-dimethylimidazo[1,2-b]pyridazin-8-yl)pyrrolidin-3-yl)-2,2,2-trifluoroacetamide] |  |  | Human Liver Microsome (+) NADPH Remaining at 60 min [1]: 113 ± 8%; Mouse Liver Microsome (+) NADPH % Remaining at 60 min [2]: 117 ± 8%
COc1ccc(-c2scc3c(N4CC[C@@H](NC(C)=O)C4)nc(Cl)nc23)cc1OC [26-PROV] |  | > 100 µM | 
CC(=O)N[C@@H]1CCN(c2ccnn3cc(C)nc23)C1 [15-PROV] | > 10 µM |  | 
CC(=O)N[C@@H]1CCN(c2cc(C)nn3c(-c4ccc(OC(F)(F)F)cc4)c(C)nc23)C1 [compound 17, (R)—N-(1-(2,6-dimethyl-3-(4-(trifluoromethoxy)phenyl)imidazo[1,2-b]pyridazin-8-yl)pyrrolidin-3-yl)acetamide] |  |  | Human Liver Microsome (+) NADPH Remaining at 60 min [1]: 114 ± 4%; Mouse Liver Microsome (+) NADPH % Remaining at 60 min [2]: 72 ± 6%
CC(=O)N[C@@H]1CCN(c2cc(C)nn3c(-c4cccs4)c(C)nc23)C1 [compound 13, (R)—N-(1-(2,6-dimethyl-3-(thiophen-2-yl)imidazo[1,2-b]pyridazin-8-yl)pyrrolidin-3-yl)acetamide] |  |  | Human Liver Microsome (+) NADPH Remaining at 60 min [1]: 50 ± 4%; Mouse Liver Microsome (+) NADPH % Remaining at 60 min [2]: 28 ± 2%
COc1ccc(-n2cnc3c(N4CC[C@@H](NC(C)=O)C4)ncnc32)cc1OC [6-PROV] |  | > 100 µM | 
COc1ccc(-c2c3nc(C)nc(N4CC[C@@H](NC(C)=O)C4)c3nn2C)cc1OC [12-PROV] |  | > 100 µM | 
